Test results as given in the NIST ThermoML archive (doi:10.1021/acs.jced.7b00107).
± gives the expanded uncertainty stated by the source.

Assay: molar heat capacity at constant pressure
Conditions: 101.33 kPa, Crystal 1

Cl.NC12CC3CC(CC(C3)C1)C2 [1-aminoadamantane hydrochloride]
molar heat capacity at constant pressure [J/K/mol]
Conditions | Small (less than 1 g) adiabatic calorimetry | Small sample (50 mg) DSC
196.3 K | 140.9 ± 0.8 | –
197.31 K | 141.5 ± 0.8 | –
197.81 K | 141.9 ± 0.8 | –
199.31 K | 142.8 ± 0.8 | –
199.33 K | 142.9 ± 0.8 | –
200 K | 143.3 ± 0.8 | –
200.81 K | 143.9 ± 0.8 | –
201.34 K | 144.3 ± 0.8 | –
202.3 K | 144.9 ± 0.8 | –
203.36 K | 145.7 ± 0.8 | –
203.8 K | 146.1 ± 0.8 | –
205.3 K | 147 ± 0.8 | –
205.38 K | 147.1 ± 0.8 | –
206.8 K | 148 ± 0.8 | –
207.4 K | 148.4 ± 0.8 | –
208.29 K | 149 ± 0.8 | –
209.42 K | 149.8 ± 0.8 | –
209.79 K | 150 ± 0.8 | –
210 K | 150.2 ± 0.8 | –
211.28 K | 151 ± 0.8 | –
211.44 K | 151.2 ± 0.8 | –
212.77 K | 152.1 ± 0.8 | –
213.46 K | 152.6 ± 0.8 | –
214.26 K | 153.1 ± 0.8 | –
215.49 K | 154.1 ± 0.8 | –
215.75 K | 154.2 ± 0.8 | –
217.23 K | 155.3 ± 0.9 | –
217.51 K | 155.5 ± 0.9 | –
218.71 K | 156.2 ± 0.9 | –
219.54 K | 156.9 ± 0.9 | –
220 K | 157.3 ± 0.8 | –
220.19 K | 157.2 ± 0.9 | –
221.56 K | 158.4 ± 0.9 | –
221.67 K | 158.4 ± 0.9 | –
223.43 K | 159.7 ± 0.9 | –
223.59 K | 159.8 ± 0.9 | –
225.29 K | 161.1 ± 0.9 | –
225.62 K | 161.3 ± 0.9 | –
227.06 K | 162.3 ± 0.9 | –
227.64 K | 162.8 ± 0.9 | –
228.83 K | 163.7 ± 0.9 | –
229.67 K | 164.3 ± 0.9 | –
230 K | 164.5 ± 0.9 | –
230.6 K | 165.1 ± 0.9 | –
231.7 K | 165.8 ± 0.9 | –
232.37 K | 166.3 ± 0.9 | –
233.72 K | 167.3 ± 0.9 | –
234.13 K | 167.6 ± 0.9 | –
235.75 K | 169 ± 0.9 | –
235.89 K | 168.9 ± 0.9 | –
237.64 K | 170.4 ± 0.9 | –
237.78 K | 170.3 ± 0.9 | –
239.4 K | 171.9 ± 0.9 | –
239.81 K | 172.1 ± 0.9 | –
240 K | 171.8 ± 0.9 | –
241.15 K | 173.6 ± 0.9 | –
241.84 K | 174.1 ± 0.9 | –
242.89 K | 174.2 ± 0.9 | –
243.87 K | 174.6 ± 0.9 | –
244.64 K | 175.3 ± 0.9 | –
245.91 K | 176.1 ± 1 | –
246.38 K | 176.6 ± 1 | –
247.94 K | 177.7 ± 1 | –
248.13 K | 177.9 ± 1 | –
249.87 K | 179.2 ± 1 | –
249.97 K | 179.2 ± 1 | –
250 K | 179.3 ± 1 | –
251.6 K | 180.5 ± 1 | –
252 K | 180.7 ± 1 | –
253.34 K | 181.7 ± 1 | –
254.03 K | 182.2 ± 1 | –
255.07 K | 183.1 ± 1 | –
256.06 K | 183.7 ± 1 | –
256.8 K | 184.4 ± 1 | –
258.09 K | 185.3 ± 1 | –
258.52 K | 185.6 ± 1 | –
260 K | 186.8 ± 1 | –
260.12 K | 186.8 ± 1 | –
260.24 K | 186.9 ± 1 | –
262.15 K | 188.4 ± 1 | –
264.19 K | 189.9 ± 1 | –
266.22 K | 191.4 ± 1 | –
268.25 K | 193.1 ± 1 | –
270 K | 194.3 ± 1.1 | –
270.28 K | 194.5 ± 1 | –
272.31 K | 196.1 ± 1.1 | –
274.35 K | 197.7 ± 1.1 | –
276.38 K | 199.3 ± 1.1 | –
278.41 K | 200.9 ± 1.1 | –
280 K | 202.1 ± 1.1 | –
280.44 K | 202.5 ± 1.1 | –
282.47 K | 204 ± 1.1 | –
284.51 K | 205.6 ± 1.1 | –
286.53 K | 207.1 ± 1.1 | –
288.56 K | 208.7 ± 1.1 | –
290 K | 209.9 ± 1.1 | –
290.6 K | 210.3 ± 1.1 | –
292.63 K | 211.9 ± 1.1 | –
294.66 K | 213.5 ± 1.1 | –
296.69 K | 215 ± 1.1 | –
298.15 K | 216.2 ± 1.2 | –
298.72 K | 216.6 ± 1.2 | –
300 K | 217.6 ± 1.2 | –
300.75 K | 218.1 ± 1.2 | –
302.78 K | 219.8 ± 1.2 | –
304.81 K | 221.3 ± 1.2 | –
306.84 K | 222.9 ± 1.2 | –
308.88 K | 224.5 ± 1.2 | –
310 K | 225.3 ± 1.2 | 222.6 ± 9.4
310.91 K | 226 ± 1.2 | –
311.7 K | – | 223.7 ± 9.5
312.94 K | 227.6 ± 1.2 | –
313.3 K | – | 224.7 ± 9.5
314.98 K | 229.1 ± 1.2 | –
315 K | – | 226.1 ± 9.6
316.6 K | – | 227.2 ± 9.6
317.01 K | 230.8 ± 1.2 | –
318.2 K | – | 228.5 ± 9.7
319.04 K | 232.3 ± 1.2 | –
319.9 K | – | 229.5 ± 9.7
320 K | 233 ± 1.2 | –
321.08 K | 233.9 ± 1.2 | –
321.5 K | – | 230.9 ± 9.8
323.1 K | – | 231.9 ± 9.8
323.11 K | 235.4 ± 1.2 | –
324.8 K | – | 233.5 ± 9.9
325.15 K | 237 ± 1.2 | –
326.4 K | – | 234.8 ± 10
327.19 K | 238.6 ± 1.3 | –
328 K | – | 236 ± 10
329.23 K | 240.1 ± 1.3 | –
329.6 K | – | 237.3 ± 10
330 K | 240.7 ± 1.3 | –
331.2 K | – | 238.4 ± 10
331.26 K | 241.7 ± 1.3 | –
332.8 K | – | 239.6 ± 10
333.3 K | 243.3 ± 1.3 | –
334.4 K | – | 241.2 ± 10
335.34 K | 244.9 ± 1.3 | –
336 K | – | 242.3 ± 10
337.38 K | 246.5 ± 1.3 | –
337.6 K | – | 243.3 ± 10
339.3 K | – | 244.7 ± 10
339.42 K | 248.1 ± 1.3 | –
340 K | 248.6 ± 1.3 | –
340.9 K | – | 246.2 ± 10
341.46 K | 249.6 ± 1.3 | –
342.5 K | – | 247.4 ± 10
343.5 K | 251.3 ± 1.3 | –
344.1 K | – | 248.6 ± 11
345.54 K | 252.9 ± 1.3 | –
345.7 K | – | 249.8 ± 11
347.2 K | – | 251.1 ± 11
347.58 K | 254.6 ± 1.3 | –
348.8 K | – | 252.4 ± 11
349.62 K | 256.2 ± 1.3 | –
350 K | 256.5 ± 1.3 | –
350.4 K | – | 253.7 ± 11
351.66 K | 257.8 ± 1.4 | –
352 K | – | 254.9 ± 11
353.6 K | – | 256.1 ± 11
353.7 K | 259.4 ± 1.4 | –
355.2 K | – | 257.6 ± 11
355.74 K | 261.1 ± 1.4 | –
356.8 K | – | 259 ± 11
357.78 K | 262.8 ± 1.4 | –
358.4 K | – | 260.3 ± 11
359.82 K | 264.4 ± 1.4 | –
360 K | 264.5 ± 1.4 | 261.8 ± 11
361.6 K | – | 263.1 ± 11
361.86 K | 266 ± 1.4 | –
363.2 K | – | 264.7 ± 11
363.9 K | 267.5 ± 1.4 | –
364.8 K | – | 265.8 ± 11
365.94 K | 269.3 ± 1.4 | –
366.3 K | – | 267.1 ± 11
367.9 K | – | 268.2 ± 11
367.98 K | 270.9 ± 1.4 | –
369.5 K | – | 269.4 ± 11
370 K | 272.5 ± 1.4 | –
371.1 K | – | 270.6 ± 12
372.7 K | – | 271.9 ± 12
374.3 K | – | 273.2 ± 12
375.9 K | – | 274.4 ± 12
377.4 K | – | 275.5 ± 12
379 K | – | 276.5 ± 12
380 K | – | 280 ± 12
380.6 K | – | 277.8 ± 12
382.2 K | – | 279 ± 12
383.8 K | – | 280.3 ± 12
385.4 K | – | 281.2 ± 12
386.9 K | – | 282.7 ± 12
388.5 K | – | 284.1 ± 12
390 K | – | 288 ± 13
390.1 K | – | 285 ± 12
391.7 K | – | 286.5 ± 12
393.3 K | – | 287.4 ± 12
394.9 K | – | 288.7 ± 12
396.4 K | – | 289.9 ± 12
398 K | – | 291.3 ± 12
399.6 K | – | 292.6 ± 12
400 K | – | 296 ± 13
401.2 K | – | 293.6 ± 12
402.8 K | – | 294.7 ± 12
404.4 K | – | 296.2 ± 13
405.9 K | – | 297.3 ± 13
407.5 K | – | 298.6 ± 13
409.1 K | – | 299.8 ± 13
410 K | – | 304 ± 13
410.7 K | – | 301 ± 13
412.3 K | – | 302.3 ± 13
413.8 K | – | 303.9 ± 13
415.4 K | – | 305.3 ± 13
417 K | – | 306.5 ± 13
418.6 K | – | 307.7 ± 13
420 K | – | 312 ± 13
420.2 K | – | 308.7 ± 13
421.7 K | – | 309.9 ± 13
423.3 K | – | 311.5 ± 13
424.9 K | – | 312.6 ± 13
426.5 K | – | 313.6 ± 13
428.1 K | – | 314.7 ± 13
429.7 K | – | 315.8 ± 13
430 K | – | 319 ± 14
431.2 K | – | 317 ± 14
432.8 K | – | 318.4 ± 14
434.4 K | – | 319.9 ± 14
436 K | – | 321 ± 14
437.6 K | – | 322.3 ± 14
439.1 K | – | 323.5 ± 14
440 K | – | 327 ± 14
440.7 K | – | 324.8 ± 14
442.3 K | – | 326 ± 14
443.9 K | – | 326.9 ± 14
445.5 K | – | 328 ± 14
447 K | – | 329.5 ± 14
448.6 K | – | 330.4 ± 14
450 K | – | 334 ± 14
450.2 K | – | 331.6 ± 14
451.8 K | – | 332.9 ± 14
453.4 K | – | 334.4 ± 14
454.9 K | – | 335.7 ± 14
456.5 K | – | 336.7 ± 14
458.1 K | – | 337.3 ± 14
459.7 K | – | 338.7 ± 14
460 K | – | 342 ± 15
461.3 K | – | 339.3 ± 14
462.8 K | – | 340.6 ± 14
464.4 K | – | 341.7 ± 14
466 K | – | 343 ± 15
467.6 K | – | 344.1 ± 15
469.2 K | – | 345 ± 15
470 K | – | 349 ± 15
470.7 K | – | 346.4 ± 15
